From patent US8580795B2, “Heterocyclic compounds as phosphodiesterase inhibitors” (Orchid Chemicals & Pharmaceuticals Limited, priority 2009, dated 2013)

Columns and labels:
[1] = system: TNF-α; experiment: LPS induced sepsis for measurement of TNF-α inhibition in mice; format: in vivo, Female Swiss albino mice; conditions: 10 mg/kg oral, 30 min before LPS i.p., serum 90 min after LPS
Procedure: LPS Induced Sepsis for Measurement of TNF-α Inhibition in Mice:
The LPS induced sepsis model in mice was performed as described by Les sekut et al (J Lab Clin Med 1994; 124, 813-20). Female Swiss albino mice were selected and the body weights were equivalent within each group. The mice were fasted for 20 h with free access to water. The mice were dosed orally with the test compound suspended in vehicle containing 0.5% Tween 80 in 0.25% Carboxy-methylcellulose sodium salt. The control mice were administered the vehicle alone. After 30 minutes of oral dosing, mice were injected with 500 μg of Lipopolysaccharide (Escherichia coli, LPS: B4 from Sigma) in phosphate buffer saline solution into the intraperitoneal cavity of the mice. After 90 minutes of LPS administration mice were bled via retro-orbital sinus puncture. Blood samples were stored overnight at 4° C. Serum samples were collected by centrifuging the samples at 4000 rpm for 15 minutes at 4° C. Immediately the serum samples were analysed for TNF-α levels using commercially available mouse TNF-α ELISA kit (Amersham Biosciences) and assay was performed by the manufacturer instruction.

[2] = molecular target: human PDE4B enzyme (PDE4B2) (Homo sapiens, UniProt Q07343); experiment: Phosphodiesterase 4 screening assay (SPA, [3H]-cAMP); format: biochemical; conditions: 100 nM compound; 0.5 μM cAMP
Chain of human PDE4B enzyme (PDE4B2) (Q07343 1-564 isoform Q07343-2): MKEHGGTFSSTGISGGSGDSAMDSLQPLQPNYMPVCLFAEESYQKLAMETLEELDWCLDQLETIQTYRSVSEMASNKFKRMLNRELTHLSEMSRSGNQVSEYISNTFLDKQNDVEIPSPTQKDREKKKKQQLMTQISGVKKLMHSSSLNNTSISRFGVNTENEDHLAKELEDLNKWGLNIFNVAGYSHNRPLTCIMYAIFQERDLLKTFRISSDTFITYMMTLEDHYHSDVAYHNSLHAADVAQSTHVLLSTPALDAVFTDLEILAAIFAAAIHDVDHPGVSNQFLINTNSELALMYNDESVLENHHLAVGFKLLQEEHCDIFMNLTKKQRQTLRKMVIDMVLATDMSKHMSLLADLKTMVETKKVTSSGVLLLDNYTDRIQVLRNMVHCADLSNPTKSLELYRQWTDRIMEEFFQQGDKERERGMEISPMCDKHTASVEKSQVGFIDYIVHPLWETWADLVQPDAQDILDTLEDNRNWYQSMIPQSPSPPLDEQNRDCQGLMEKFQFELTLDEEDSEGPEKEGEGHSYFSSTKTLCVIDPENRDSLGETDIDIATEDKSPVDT
Procedure: Phosphodiesterase 4 Screening Assay:
PDE4 (Phosphodiesterase type IV) enzymes convert cyclic AMP (cAMP) into AMP. The assay is performed to determine the effect of test compounds on the inhibition of purified human PDE4B enzyme.
The assay involves the detection of the Tritiated AMP (product) using SPA beads known as yittrium silicate. The linear AMP bind preferentially to SPA yittrium silicate beads compared to cyclic nucleotides in the presence of zinc sulphate. The binding of the radiolabelled product to the bead brings the isotope into close proximity to allow radiation from the tritium to excite the scintillant within the bead to emit light. The unbound radiolabel is not close enough to allow this energy transfer and the light emitted due to the binding of tritiated AMP is detected as cpm (counts per minute).
PDE Activity (SPA Based Assay Protocol):
PDE4B activity was inhibited by the compounds according to the invention in a modified SPA (scintillation proximity assay) test, supplied by GE Healthcare Life Sciences (see procedural instructions “Phosphodiesterase [^3H]-cAMP SPA enzyme assay, code TRKQ 7090”), carried out in 96-well microtitre plates. The test volume is 100 μL and contains 50 mM Tris buffer (pH 7.4), 8.3 mM Mg^2+, in the presence of inhibitor or test compound, and containing PDE4B2 enzyme (sufficient to ensure that 10-20% of the cAMP is converted, under the said experimental conditions). […] After a pre-incubation of 5 minutes at 37° C., the reaction is started by adding the substrate (cAMP; 0.5 μM cAMP, including about 50,000 cpm of [^3H]-cAMP) and the assays are incubated for a further 10 minutes; after that, they are stopped by adding SPA beads containing 18 mM ZnSO4 (50 μl). After the beads have been sedimented (>30 minutes), the microtitre plates are analyzed in a Microplate luminescence detection device (TopCount* NXT; PerkinElmer Life Sciences). Where, the signal in the absence of enzyme is defined as the background. 100% activity was defined as the signal detected in the presence of enzyme and DMSO with the background subtracted. The corresponding IC50 values of the compounds for the inhibition of PDE4B2 activity are determined from the concentration-effect curves by means of non-linear regression fit of the standard 4-parameter/multiple binding sites equation from a eight- to ten-point titration. (Catherine B. et al. Anal. Biochem., 1999, 275(2), pp. 148-155, David M. E. Biochem. Pharmacol., 1999, 57, pp. 965-973)

[3] = system: TNF-α; experiment: In vitro measurement of TNF-α production in LPS-stimulated human PBMC (ELISA); format: cell-based; conditions: 100 nM compound, LPS 1 μg/mL, 18 h, NA: Not active
Procedure: Biological Activity In Vitro Measurement of Tumor Necrosis Factor Alpha (TNF-α):
This assay determines the effect of test compounds on the production of TNF-α in human Peripheral Blood Mononuclear Cells (PBMC). Compounds were tested for their ability to inhibit the activity of TNF α in human PBMC. PBMC were isolated from blood (of healthy volunteers) using BD Vacutainer CPT™ (Cell preparation tube, BD Bio Science) and suspended in RPMI (Rosewell park memorial institute) medium (Physiol. Res. 2003, 52, 593-598). The test compounds were pre-incubated with PBMC (0.5 million/incubation well) for 15 minutes at 37° C. and then stimulated with Lipopolysaccharide (Escherichia coli: B4; 1 μg/mL) for 18 h at 37° C. in 5% CO2. The levels of TNF-α in the cell culture medium were estimated using enzyme-linked immunosorbent assay performed in a 96 well format as per the procedure of the manufacturer (Cayman Chemical, Ann Arbor, USA).

[4] = system: LPS induced neutrophilia; experiment: LPS induced neutrophilia model for asthma and COPD; format: in vivo, Male Sprague Dawley rats; conditions: rats, BAL 6 h after LPS exposure
Procedure: LPS Induced Neutrophilia Model for Asthma and COPD:
LPS induced neutrophilia in Sprague Dawley rats was performed using the protocol described in Pulm Pharmacol & Ther 17,133-140, 2004. Male Sprague. Dawley rats were acclimatized to laboratory conditions five to seven days prior to the start of the experiment. They were randomly distributed to various groups based on body weight. Except normal group all the animals were exposed to LPS 100 μg/ml for 40 minutes. The rats were dosed with the test compound suspended in the vehicle containing 0.25% carboxymethylcellulose before half an hour of LPS exposure. BAL was performed 6 h after LPS exposure, total cell count and DLC was done and compared with control and the standard drug.

| SMILES | TNF-α Inhibition (%) [1] [%] | inhibition at 0.1 µM [2] [%] | inhibition at 0.1 µM [3] [%] | LPS induced neutrophilia % inhibition ([4]; Dose 10 mg/kg) [%] | LPS induced neutrophilia % inhibition ([4]; Dose 5 mg/kg) [%] |
| --- | --- | --- | --- | --- | --- |
| O=C(Nc1c(Cl)cncc1Cl)c1csc(-c2ccc(OC(F)F)c3oc4ccccc4c23)n1 [Example 14, N-(3,5-dichloropyridin-4-yl)-2-(4-(difluoromethoxy)dibenzo[b,d]furan-1-yl)-1,3-thiazole-4-carboxamide] | 40.67 | 42.3 | 14.5 |  |  |
| O=C(NC1CCC(O)CC1)c1csc(-c2ccc(OC(F)F)c3oc4ccccc4c23)n1 (centres unmarked) [Example 39, 2-((4-Difluoromethoxy)dibenzo[b,d]furan-1-yl)-N-(4-hydroxycyclohexyl)-1,3-thiazole-4-carboxamide] |  |  | 77.7 | 57.98 |  |
| COc1ccc(-c2nc(C(=O)Nc3c(Cl)cncc3Cl)cs2)c2c1oc1ccccc12 [Example 13, N-(3,5-Dichloropyridin-4-yl)-2-(4-methoxydibenzo[b,d]furan-1-yl)-1,3-thiazole-4-carboxamide] | 37.83 | 70.3 | 26.1 |  |  |
| Cc1sc(-c2ccc(OC(F)F)c3oc4ccc(NS(C)(=O)=O)cc4c23)nc1C(=O)NC1CCC(O)CC1 (centres unmarked) [Example 35, 2-(4-(Difluoromethoxy)-8-(methylsulfonamido)dibenzo[b,d]furan-1-yl)-N-(4-hydroxycyclohexyl)-5-methyl-1,3thiazole-4-carboxamide] |  |  | 61.8 | 19.29 |  |
| CC(=O)Nc1ccc2oc3c(OC(F)F)ccc(-c4nc(C(=O)NC5CCC(O)CC5)cs4)c3c2c1 (centres unmarked) [Example 38, 2-(8-Acetamido-4-(difluoromethoxy)dibenzo[b,d]furan-1-yl)-N-(4-hydroxycyclohexyl)-1,3-thiazole-4-carboxamide] |  |  | 83.4 |  | 35.68 |
| COc1ccc(-c2nc(CCC(=O)Nc3c(Cl)cncc3Cl)cs2)c2c1oc1ccccc12 [Example 11, N-(3,5-Dichloropyridin-4-yl)-3-(2-(4-methoxydibenzo[b,d]furan-1-yl)-1,3-thiazol-4-yl)propanamide] | 46.70 | 32.8 |  |  |  |
